Measurements taken from ChEMBL document CHEMBL3272146, “Tetramethoxydibenzoquinolizinium salts. Preparation and antileukemic activity of some positional and structural isomers of coralyne” (1976).
Active and inactive are the calls of the source. No cut-off for these calls is given here.

How the values were obtained:
[1] = test system: P388; test: In-vivo antileukemic activity against mouse P388 cells assessed as host survival at 20 mg/kg qd relative to control; format: functional
[2] = test system: P388; test: In-vivo antileukemic activity against mouse P388 cells assessed as host survival at 10 mg/kg qd relative to control; format: functional
[3] = test system: P388; test: In-vivo antileukemic activity against mouse P388 cells assessed as host survival at 5 mg/kg qd relative to control; format: functional
[4] = test system: P388; test: In-vivo antileukemic activity against mouse P388 cells assessed as host survival at 120 mg/kg qd relative to control; format: functional
[5] = test system: P388; test: In-vivo antileukemic activity against mouse P388 cells assessed as host survival at 5 mg/kg qd; format: functional, organism-based; set-up: dose 5 mg/kg
[6] = test system: P388; test: In-vivo antileukemic activity against mouse P388 cells assessed as host survival at 120 mg/kg qd; format: functional, organism-based; set-up: dose 120 mg/kg
[7] = test system: P388; test: In-vivo antileukemic activity against mouse P388 cells assessed as host survival at 80 mg/kg qd; format: functional, organism-based; set-up: dose 80 mg/kg
[8] = test system: P388; test: In-vivo antileukemic activity against mouse P388 cells assessed as host survival at 20 mg/kg qd; format: functional, organism-based; set-up: dose 20 mg/kg
[9] = test system: P388; test: In-vivo antileukemic activity against mouse P388 cells assessed as host survival at 10 mg/kg qd; format: functional, organism-based; set-up: dose 10 mg/kg
[10] = test system: P388; test: In-vivo antileukemic activity against mouse P388 cells assessed as host survival at 160 mg/kg qd; format: functional, organism-based; set-up: dose 160 mg/kg
[11] = test system: P388; test: In-vivo antileukemic activity against mouse P388 cells assessed as host survival at 40 mg/kg qd; format: functional, organism-based; set-up: dose 40 mg/kg
[12] = test system: P388; test: In-vivo antileukemic activity against mouse P388 cells assessed as host survival at 160 mg/kg qd relative to control; format: functional
[13] = test system: P388; test: In-vivo antileukemic activity against mouse P388 cells assessed as host survival at 80 mg/kg qd relative to control; format: functional
[14] = test system: P388; test: In-vivo antileukemic activity against mouse P388 cells assessed as host survival at 40 mg/kg qd relative to control; format: functional
[15] = test system: P388; test: In-vivo antileukemic activity against mouse P388 cells assessed as host survival at 25 mg/kg qd relative to control; format: functional
[16] = test system: P388; test: In-vivo antileukemic activity against mouse P388 cells assessed as host survival at 400 mg/kg qd relative to control; format: functional
[17] = test system: P388; test: In-vivo antileukemic activity against mouse P388 cells assessed as host survival at 200 mg/kg qd relative to control; format: functional
[18] = test system: P388; test: In-vivo antileukemic activity against mouse P388 cells assessed as host survival at 100 mg/kg qd; format: functional, organism-based; set-up: dose 100 mg/kg
[19] = test system: P388; test: In-vivo antileukemic activity against mouse P388 cells assessed as host survival at 50 mg/kg qd; format: functional, organism-based; set-up: dose 50 mg/kg
[20] = test system: P388; test: In-vivo antileukemic activity against mouse P388 cells assessed as host survival at 25 mg/kg qd; format: functional, organism-based; set-up: dose 25 mg/kg
[21] = test system: P388; test: In-vivo antileukemic activity against mouse P388 cells assessed as host survival at 200 mg/kg qd; format: functional, organism-based; set-up: dose 200 mg/kg
[22] = test system: P388; test: In-vivo antileukemic activity against mouse P388 cells assessed as host survival at 100 mg/kg qd relative to control; format: functional
[23] = test system: P388; test: In-vivo antileukemic activity against mouse P388 cells assessed as host survival at 50 mg/kg qd relative to control; format: functional
[24] = test system: P388; test: In-vivo antileukemic activity against mouse P388 cells assessed as host survival at 168 mg/kg qd; format: functional, organism-based; set-up: dose 168 mg/kg
[25] = test system: P388; test: In-vivo antileukemic activity against mouse P388 cells assessed as host survival at 8 mg/kg qd relative to control; format: functional
[26] = test system: P388; test: In-vivo antileukemic activity against mouse P388 cells assessed as host survival at 64 mg/kg qd; format: functional, organism-based; set-up: dose 64 mg/kg
[27] = test system: P388; test: In-vivo antileukemic activity against mouse P388 cells assessed as host survival at 128 mg/kg qd relative to control; format: functional
[28] = test system: P388; test: In-vivo antileukemic activity against mouse P388 cells assessed as host survival at 75 mg/kg qd relative to control; format: functional
[29] = test system: P388; test: In-vivo antileukemic activity against mouse P388 cells assessed as host survival at 64 mg/kg qd relative to control; format: functional
[30] = test system: P388; test: In-vivo antileukemic activity against mouse P388 cells assessed as host survival at 32 mg/kg qd relative to control; format: functional

`CC(=O)OS(=O)(=O)[O-].COc1cc2cc3cc4cc(OC)c(OC)cc4c(C)[n+]3cc2cc1OC` showed a T/C [1] of 180, a T/C [2] of 145 and a T/C [3] of 140. The T/C [4] was 150, the Activity [5] was “Active” and the Activity [6] was “Active”. The Activity [7] was “Active”, the Activity [8] was “Active” and the Activity [9] was “Active”. The Activity [10] was “Active”, the Activity [11] was “Active” and the T/C [12] was 200. For the same molecule, the T/C [13] was 180 and the T/C [14] was 150.

With `COc1cc2cc3c4cc(OC)c(OC)cc4cc(C)[n+]3cc2cc1OC.[Cl-]` the T/C [15] was 139, the T/C [16] was 131 and the T/C [17] was 139. For the same molecule, the Activity [18] was “Active”, the Activity [19] was “Active” and the Activity [20] was “Active”. The Activity [21] was “Active”, the T/C [22] was 134 and the T/C [23] was 134.

For `CC(=O)OS(=O)(=O)[O-].COc1cc2cc[n+]3c(C)c4ccc(OC)c(OC)c4cc3c2cc1OC`, the T/C [1] was 171, the T/C [2] was 136 and the T/C [3] was 127. The Activity [5] was “Active”, the Activity [8] was “Active” and the Activity [9] was “Active”. The Activity [24] was “inactive” and the T/C [14] was 177.

Molecule `CC(=O)OS(=O)(=O)[O-].COc1cc2c[n+](C)c3c4ccc(OC)c(OC)c4ccc3c2cc1OC` has a T/C [1] of 154, a T/C [2] of 149 and a T/C [4] of 179. The T/C [15] was 164, the Activity [18] was “Active” and the Activity [19] was “Active”. For the same molecule, the Activity [6] was “Active”, the Activity [7] was “Active” and the Activity [20] was “Active”. The Activity [8] was “Active”, the Activity [9] was “Active” and the T/C [22] was 209. The T/C [13] was 170, the T/C [23] was 174 and the T/C [14] was 153.

`CC(=O)OS(=O)(=O)[O-].COc1cc2cc3c4cc(OC)c(OC)cc4cc[n+]3c(C)c2cc1OC` showed a T/C [1] of 173, a T/C [2] of 159 and a T/C [25] of 150. The T/C [3] was 157, the Activity [18] was “Active” and the Activity [26] was “Active”. The Activity [19] was “Active”, the Activity [5] was “Active” and the T/C [12] was 170. For the same molecule, the T/C [27] was 167, the T/C [22] was 176 and the T/C [13] was 175. The T/C [28] was 175, the T/C [29] was 182 and the T/C [23] was 180. It also gave a T/C [14] of 173 and a T/C [30] of 175.
